We go through twelve compounds from patent US20120283216A1, “FUNGICIDAL 2-(BICYCLIC ARYLOXY)CARBOXAMIDES” (priority 2009, published 2012).

Holding throughout (assay type): in vivo
The test system of test [1] is Blumeria graminis f. sp. tritici. Briefly: Test A: wheat powdery mildew, preventive spray on wheat seedlings, visual disease rating. The settings on record: preventive spray at 40 ppm, rated 8 days after inoculation; for pest or weed control at 40 ppm: Blumeria graminis, 192 h, read-out: Test A disease control rating (100 = 100% disease control, 0 = no disease control relative to the controls). In outline:
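Wheat seedlings sprayed to run-off with 40 ppm compound (equivalent to 800 g/ha) in acetone/water with 250 ppm surfactant, then dusted with B. graminis spores next day. Held at 20° C. for 8 days before visual rating, 0–100 scale as % disease control relative to controls.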

In a further test the test system is Botrytis cinerea. Briefly: Test C: tomato botrytis, preventive spray on tomato seedlings, visual disease rating. To be noted: preventive spray at 40 ppm, rated after 48 h + 3 days; for pest or weed control at 40 ppm: Botrytis cinerea, 120 h, read-out: Test C disease control rating (100 = 100% disease control, 0 = no disease control relative to the controls). An outline of the steps: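 Compounds applied at 40 ppm (≈800 g/ha) in acetone/water with surfactant, sprayed to run-off on tomato seedlings. Inoculated next day with B. cinerea spores; 48 h saturated humidity at 20 °C, then 3 days at 27 °C. Visual rating as % disease control versus untreated controls.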

The next test deals with Septoria tritici. As to the kind of experiment: Test B: wheat leaf blotch, preventive spray on wheat seedlings, visual disease rating. To be noted: preventive spray at 40 ppm, rated after 48 h + 19 days; for pest or weed control at 40 ppm: Zymoseptoria tritici, 504 h, read-out: Test B disease control rating (100 = 100% disease control, 0 = no disease control relative to the controls). An outline of the steps: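 Wheat seedlings were sprayed to run-off with 40 ppm compound (≈800 g/ha) in acetone/water with 250 ppm surfactant, then inoculated with Septoria tritici spores the next day. After 48 h saturated humidity at 20° C and 19 days in a growth chamber at 20° C, disease control was rated visually (0–100% vs controls).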

`CCC(Oc1ccc2ccc(OCOC)cc2c1)C(=O)NC(C)(C)C#N` (stereo not drawn) [Compound 72]: in test [1], the “Test A disease control rating (100 = 100% disease control, 0 = no disease control relative to the controls)” value is recorded as 0%. The “Test C disease control rating (100 = 100% disease control, 0 = no disease control relative to the controls)” value in the test with Botrytis cinerea is on record as 100%. For the same compound, in the test with Septoria tritici, the “Test B disease control rating (100 = 100% disease control, 0 = no disease control relative to the controls)” value was found to be 99%.

For `C#CC(C)(C)NC(=O)C(CC)Oc1ccc2ccc(OCOC)cc2c1` (stereo not drawn) [Compound 73], the “Test A disease control rating (100 = 100% disease control, 0 = no disease control relative to the controls)” value in test [1] is 0%. Besides, in the test on Botrytis cinerea, the “Test C disease control rating (100 = 100% disease control, 0 = no disease control relative to the controls)” value stood at 99%. Moreover, the “Test B disease control rating (100 = 100% disease control, 0 = no disease control relative to the controls)” value in the test on Septoria tritici worked out at 100%.

Take `CCOc1ccc2ccc(OC(CC)C(=O)NC(C)(C)C)cc2c1` (stereo not drawn) [Compound 74, N-(1,1-dimethylethyl)-2-[(7-ethoxy-2-naphthalenyl)oxy]butanamide]: the pest or weed control at 40 ppm (in test [1]; with Botrytis cinerea; in the test on Septoria tritici) was 100% in each case.

In the case of `CCOc1ccc2ccc(OC(CC)C(=O)NC(C)(C)C#N)cc2c1` (stereo not drawn) [Compound 75, N-(1-cyano-1-methylethyl)-2-[(7-ethoxy-2-naphthalenyl)oxy]butanamide], the pest or weed control at 40 ppm (in test [1]; in the test on Botrytis cinerea; with Septoria tritici) was 100% in each case.

As for `C#CC(C)(C)NC(=O)C(CC)Oc1ccc2ccc(OCC)cc2c1` (stereo not drawn) [Compound 76, N-(1,1-dimethyl-2-propyn-1-yl)-2-[(7-ethoxy-2-naphthalenyl)oxy]butanamide], the pest or weed control at 40 ppm (in test [1]; in the test on Botrytis cinerea; in the test on Septoria tritici) was 100% each time.

Turning to `CCC(Oc1ccc2ccc(C(F)F)cc2c1)C(=O)NC(C)(C)C#N` (stereo not drawn) [Compound 77], the “Test A disease control rating (100 = 100% disease control, 0 = no disease control relative to the controls)” value in test [1] was 0%. Also, in the test with Botrytis cinerea, the “Test C disease control rating (100 = 100% disease control, 0 = no disease control relative to the controls)” value worked out at 67%. In addition, the “Test B disease control rating (100 = 100% disease control, 0 = no disease control relative to the controls)” value with Septoria tritici amounted to 99%.

For the compound `C#CC(C)(C)NC(=O)C(CC)Oc1ccc2ccc(C(F)F)cc2c1` (stereo not drawn) [Compound 78], in test [1], the “Test A disease control rating (100 = 100% disease control, 0 = no disease control relative to the controls)” value was found to be 81%. Further, the “Test C disease control rating (100 = 100% disease control, 0 = no disease control relative to the controls)” value in the test on Botrytis cinerea turned out to be 99%. Besides, the “Test B disease control rating (100 = 100% disease control, 0 = no disease control relative to the controls)” value with Septoria tritici was determined as 88%.

For `COC(Oc1ccc2ccc(C(F)F)cc2c1)C(=O)NC(C)(C)C#N` (stereo not drawn) [Compound 79], in test [1], the “Test A disease control rating (100 = 100% disease control, 0 = no disease control relative to the controls)” value amounted to 72%. For the same compound, the “Test C disease control rating (100 = 100% disease control, 0 = no disease control relative to the controls)” value in the test with Botrytis cinerea came to 99%. The “Test B disease control rating (100 = 100% disease control, 0 = no disease control relative to the controls)” value in the test with Septoria tritici is listed as 98%.

`C#CC(C)(C)NC(=O)C(OC)Oc1ccc2ccc(C(F)F)cc2c1` (stereo not drawn) [Compound 80]: the “Test A disease control rating (100 = 100% disease control, 0 = no disease control relative to the controls)” value in test [1] is listed as 0%. Besides, in the test with Botrytis cinerea, the “Test C disease control rating (100 = 100% disease control, 0 = no disease control relative to the controls)” value is given as 100%. Also, in the test on Septoria tritici, the “Test B disease control rating (100 = 100% disease control, 0 = no disease control relative to the controls)” value is 93%.

Consider `COc1ccc2ccc(OC(OC)C(=O)NC(C)(C)C#N)cc2c1` (stereo not drawn) [Compound 81], for which the “Test A disease control rating (100 = 100% disease control, 0 = no disease control relative to the controls)” value in test [1] was found to be 0%. Besides, in the test with Botrytis cinerea, the “Test C disease control rating (100 = 100% disease control, 0 = no disease control relative to the controls)” value is listed as 100%. In addition, the “Test B disease control rating (100 = 100% disease control, 0 = no disease control relative to the controls)” value in the test with Septoria tritici is 99%.

Turning to `C#CC(C)(C)NC(=O)C(OC)Oc1ccc2ccc(OC)cc2c1` (stereo not drawn) [Compound 82], in test [1], the “Test A disease control rating (100 = 100% disease control, 0 = no disease control relative to the controls)” value turned out to be 96%. Also, in the test with Botrytis cinerea, the “Test C disease control rating (100 = 100% disease control, 0 = no disease control relative to the controls)” value was determined as 100%. The “Test B disease control rating (100 = 100% disease control, 0 = no disease control relative to the controls)” value in the test on Septoria tritici amounted to 99%.

Regarding `COCC(C)(C)NC(=O)C(OC)Oc1ccc2ccc(OC)cc2c1` (stereo not drawn) [Compound 83], the “Test A disease control rating (100 = 100% disease control, 0 = no disease control relative to the controls)” value in test [1] is on record as 96%. For the same compound, in the test with Botrytis cinerea, the “Test C disease control rating (100 = 100% disease control, 0 = no disease control relative to the controls)” value amounted to 100%. For the same compound, in the test with Septoria tritici, the “Test B disease control rating (100 = 100% disease control, 0 = no disease control relative to the controls)” value stood at 99%.
